The record followed here is publication PMC6382835, “A critical evaluation of TRPA1-mediated locomotor behavior in zebrafish as a screening tool for novel anti-nociceptive drug discovery” (Scientific Reports, 2019).

Assay [1] concerns the target T1, zebrafish TRPA1a (zTRPA1a) (Danio rerio, UniProt Q5UM15).
T1 sequence (Q5UM15 1-1115): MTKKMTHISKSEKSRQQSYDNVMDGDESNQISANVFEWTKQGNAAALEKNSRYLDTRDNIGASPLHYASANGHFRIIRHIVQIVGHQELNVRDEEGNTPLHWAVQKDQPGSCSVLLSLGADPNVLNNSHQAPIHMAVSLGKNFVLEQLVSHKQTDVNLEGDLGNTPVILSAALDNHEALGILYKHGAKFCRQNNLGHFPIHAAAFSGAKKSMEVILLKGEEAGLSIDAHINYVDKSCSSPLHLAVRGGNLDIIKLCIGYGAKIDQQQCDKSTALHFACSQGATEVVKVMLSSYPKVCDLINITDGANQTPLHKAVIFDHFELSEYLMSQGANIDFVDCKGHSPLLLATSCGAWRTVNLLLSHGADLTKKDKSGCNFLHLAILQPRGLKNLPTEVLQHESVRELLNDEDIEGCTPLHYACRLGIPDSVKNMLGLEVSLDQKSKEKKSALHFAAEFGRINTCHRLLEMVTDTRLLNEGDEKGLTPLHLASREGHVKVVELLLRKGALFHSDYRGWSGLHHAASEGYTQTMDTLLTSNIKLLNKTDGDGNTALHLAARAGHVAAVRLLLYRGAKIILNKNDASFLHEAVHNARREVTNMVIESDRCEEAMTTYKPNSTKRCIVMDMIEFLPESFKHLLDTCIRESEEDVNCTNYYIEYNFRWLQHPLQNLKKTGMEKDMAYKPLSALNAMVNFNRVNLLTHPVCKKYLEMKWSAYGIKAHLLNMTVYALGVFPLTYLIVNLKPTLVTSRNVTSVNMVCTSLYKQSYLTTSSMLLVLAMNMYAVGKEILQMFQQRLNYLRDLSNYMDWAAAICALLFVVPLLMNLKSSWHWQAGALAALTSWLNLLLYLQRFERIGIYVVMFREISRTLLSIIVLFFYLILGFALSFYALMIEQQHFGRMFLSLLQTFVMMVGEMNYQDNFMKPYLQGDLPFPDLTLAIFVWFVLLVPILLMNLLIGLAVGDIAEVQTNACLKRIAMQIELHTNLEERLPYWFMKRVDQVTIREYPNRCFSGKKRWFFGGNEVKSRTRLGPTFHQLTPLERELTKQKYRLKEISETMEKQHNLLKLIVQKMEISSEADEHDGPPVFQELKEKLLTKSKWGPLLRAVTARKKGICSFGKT
The experiment in a line: FLIPR calcium signaling assay in zTRPA1a-transfected HEK293 cells. Format: cell-based. As to the method: The cells were maintained in a 37 °C incubator with consistent 5% CO2. […] Experiments were carried out with the approval of the Institutional Biohazard Committee (#13-013-16).
Twenty-five µl calcium sensitive Fluorescent Imaging Plate Reader (FLIPR) Calcium 6 assay dye (#R8190, Molecular Devices, CA, USA) was added to each well of a 384-well plate containing HEK293 cells transiently expressing mTRPA1, zTRPA1a, and zTRPA1b, respectively. The cells were incubated for an hour prior to the recording of intracellular calcium levels in a FlexStation3 Multi-Mode Microplate Reader (#R8190, Molecular Devices) as previously described. […] During the assay, the cells were challenged by a 5x ASP7663 solution or 1% DMSO solution at the 20 seconds time point, and both solutions were diluted in calcium buffer. Relative fluorescence units (RFU) were measured for 120 seconds period by the Flexstation. […] For each specific antagonist concentration we plotted Log(dose ratio-1) against the antagonist concentration in a Schild plot. The dose ratio (A’/A) equals the EC50 of the agonist (ASP7665) in the presence of a concentration of the antagonist (A’) divided by the EC50 of the agonist in the absence of antagonist (A). The x-intercept of the Schild plot was used to identify the antagonist-receptor affinity (pA2).
All data are presented as means ± standard error of the mean (SEM). For our in vitro statistical analysis, AUC of calcium influx (RFU) was measured to plot dose-response curves, which were further analyzed by nonlinear regression analysis. Mean RFU of the first 10 seconds was used as a baseline of the AUC. EC50 values of the dose-response curves were further used to plot Schild curves, and the curves were analyzed with linear regression analysis. For the mice von Frey test, mechanical thresholds were analyzed with two-way ANOVA followed by a Bonferonni test for multiple comparison analysis. For the zebrafish behavior test, the data from the first five seconds following drug administration were excluded, as zebrafish displacement during that period was highly influenced by liquid dispensing. AUC of all curves were measured and analyzed by one-way ANOVA. The post-hoc analysis was conducted with the Tukey’s or Dunnett’s multiple comparisons unless it stated otherwise. […] For our time-course average displacement graph, we used 2nd degree polynomial smoothing for a better representation; however, we used data before smoothing for all statistical analysis and quantification. All in vitro and in vivo data were evaluated using GraphPad Prism 7 (GraphPad Software, La Jolla, CA) unless it stated otherwise.

For assay [2], the system named is non-transfected HEK293 cells. The experiment in a line: FLIPR calcium signaling assay in non-transfected HEK293 cells (off-target effect). Format: cell-based.
Where [3] appears, read: agonist calcium influx, zTRPA1a-transfected HEK293, read-out: EC50 (potency in µM).

Like-named read-outs stand apart in the source and are kept apart here.

The EC50 is the concentration at which the effect is half-maximal. As for `C=CCN=C=S` [AITC, allyl isothiocyanate], the EC50 in assay [1] (agonist calcium influx, AUC of RFU, zTRPA1a-transfected HEK293, read-out: pEC50 (AITC given as EC50) (converted)) was 25.1 µM; in assay [1] (setting [3]), 26.6 µM.
With `CC(C)CN1C(=O)/C(=C/C(=O)O)c2cccc(F)c21` [ASP7663], in assay [1] (agonist calcium influx, AUC of RFU, zTRPA1a-transfected HEK293), the “pEC50 (AITC given as EC50)” value was found to be 3.9 ± 0.18. Further, the results for the EC50 in assay [1] (setting [3]) and in assay [2] (read-out: EC50 (off-target calcium response)) were 118 µM and 54.1 µM, respectively. Besides, the “pEC50 (off-target calcium response)” value in assay [2] amounted to 4.27 ± 0.03.
Usually pA2 stands for a measure of antagonist potency on a negative log scale. Take `CC(C)c1ccc(NC(=O)Cn2cnc3c2c(=O)n(C)c(=O)n3C)cc1` [HC-030031]: the “calcium influx by antagonist alone” value in assay [1] (316 µM, zTRPA1a-transfected cells) is recorded as “could produce an influx of intracellular calcium”; in assay [2], “did not observe any calcium influx”. In assay [1] (HC030031 alone, zTRPA1a-transfected HEK293, Supplemental Fig. 6), the “pEC50 (weak agonist activity)” value is 2.85 ± 0.19. Moreover, the “pA2 expressed in µM” value in assay [1] (Schild plot against ASP7663-mediated calcium influx, zTRPA1a) is listed as 26.8 µM. The pA2 in assay [1] (Schild plot against ASP7663-mediated calcium influx, zTRPA1a, only two antagonist doses) worked out at 4.6 ± 0.2. In addition, the Schild slope in assay [1] (zTRPA1a, n = 3) was 0.84 ± 0.22.
